From paper PMC5286421, “Interactions of retinoids with the ABC transporters P-glycoprotein and Breast Cancer Resistance Protein” (Scientific Reports, 2017)
Like-named read-outs stand apart in the source and are kept apart here.

Legend:
Pgp [1] = target: T1, Pgp (Homo sapiens, UniProt P08183); test: Calcein accumulation test (Pgp transport activity) in NIH 3T3 MDR1 cells; details: 20 min pre-treatment 37 °C, 500 nM calcein-AM 20 min
Procedure: (§1) Calcein-AM was applied to measure the transport activity of Pgp[51], while ABCG2 mediated transport was measured in mitoxantrone accumulation tests[18]. Cells were harvested and washed three times in PBS containing 7 mM glucose (gl-PBS). […] Dead cells were excluded from the analysis on the basis of propidium iodide (PI) staining.
(§2) Flow cytometric analysis was carried out on a Becton Dickinson FACSAria III Cell Sorter (Becton Dickinson, Mountain View, CA, USA). Calcein was excited by the 488 nm line of a solid state laser and the emitted light was detected using a 502 nm dichroic mirror and a 530/30 nm band-pass filter. […] AlexaFluor647 and mitoxantrone signals were detected with a 633 nm excitation laser and a 660/20 nm band-pass filter.

Pgp [2] = target: T1, Pgp; details: for IC50 values, Pgp stimulated (verapamil-stimulated) ATPase activity: 40 μM verapamil; for IC50 values, Pgp stimulated (verapamil-stimulated) ATPase activity / IC50 values, Pgp basal ATPase activity: Sf9 membranes, mean ± SEM, n=3; for IC50 values, Pgp basal ATPase activity: 10 min pre-incubation 37 °C, 3 mM ATP/Mg2+ 25 min; for Change of apparent KM of verapamil-stimulated Pgp ATPase activity / Change of vmax of verapamil-stimulated Pgp ATPase activity: Figs 5 and 6; for Type of inhibition of the verapamil-stimulated ATPase activity of Pgp: modified Michaelis-Menten fit at different verapamil concentrations
Procedure: (§3) For ATPase activity measurements we used membrane samples derived from Sf9 (Spodoptera frugiperda) insect ovarian cells expressing human Pgp or ABCG2. cDNAs of the transporters were cloned into recombinant baculovirus transfer vectors, the Sf9 insect ovarian cells were cultured, and infected with the baculoviruses as described in ref. [52]. Sf9 cells overexpressing human Pgp and ABCG2 were harvested and cell membranes were isolated. The protein concentration of the membrane samples were determined by the Lowry method[53]. The ABCG2 expressing Sf9 membrane samples were loaded with cholesterol by cholesterol-methyl-beta-cyclodextrine complex in order to obtain high specific ATPase activity of the transporter[54]. Membrane samples were stored at −80 °C. The transporter expression of the membrane samples (5 μg membrane protein/slot) was routinely checked by immunoblot using the G-1 mAb (for Pgp) or BXP-21 mAb (for ABCG2) and a goat anti-mouse HRP-conjugated IgG secondary antibody. Both primary and secondary antibodies were from Santa Cruz Biotechnology Inc. (CA, USA) and applied at 1:5,000 dilution.
(§4) The vanadate-sensitive ATPase activity of Pgp and ABCG2 was determined by a colorimetric assay described in refs [32],[55]. Specific ATPase activity of the transporters was calculated from the amount of released inorganic phosphate. […] The absorbance of the samples was measured at 700 nm using a BioTek Synergy HT plate reader (BioTek Instruments, Winooski, USA).

ABCG2 [3] = target: T2, ABCG2 (Homo sapiens, UniProt Q9UNQ0); test: Mitoxantrone accumulation test (ABCG2 transport activity) in MDCK ABCG2 cells; details: 20 min pre-treatment 37 °C, 5 μM mitoxantrone 40 min
T2 sequence (Q9UNQ0 1-655): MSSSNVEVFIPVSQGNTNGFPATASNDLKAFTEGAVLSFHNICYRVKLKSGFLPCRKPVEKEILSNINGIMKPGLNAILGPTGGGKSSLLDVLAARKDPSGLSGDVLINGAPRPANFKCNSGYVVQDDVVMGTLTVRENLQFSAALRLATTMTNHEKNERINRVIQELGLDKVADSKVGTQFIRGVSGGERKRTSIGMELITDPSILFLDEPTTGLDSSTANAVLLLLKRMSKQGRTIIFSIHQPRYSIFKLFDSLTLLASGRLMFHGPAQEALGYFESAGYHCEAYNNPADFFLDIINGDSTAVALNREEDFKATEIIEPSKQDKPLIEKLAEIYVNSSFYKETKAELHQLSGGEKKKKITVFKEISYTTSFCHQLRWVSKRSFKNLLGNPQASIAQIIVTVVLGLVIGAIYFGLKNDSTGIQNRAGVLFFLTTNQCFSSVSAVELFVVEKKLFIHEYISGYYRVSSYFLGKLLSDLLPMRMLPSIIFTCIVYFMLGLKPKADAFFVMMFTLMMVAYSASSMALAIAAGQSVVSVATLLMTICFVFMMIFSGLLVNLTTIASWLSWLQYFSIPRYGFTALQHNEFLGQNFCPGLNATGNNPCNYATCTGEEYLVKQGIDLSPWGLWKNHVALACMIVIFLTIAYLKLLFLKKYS
Procedure: as §1, §2

ABCG2 [4] = target: T2, ABCG2; test: Vanadate-sensitive ATPase activity of ABCG2 in Sf9 membrane preparations; assay type: biochemical; details: for IC50 values, ABCG2 stimulated (quercetin-stimulated) ATPase activity / IC50 values, ABCG2 basal ATPase activity / IC50: cholesterol-loaded Sf9 membranes, mean ± SEM, n=3; for Change of apparent KM of quercetin-stimulated ABCG2 ATPase activity / Change of vmax of quercetin-stimulated ABCG2 ATPase activity: Figs 5 and 6; for Type of inhibition of the quercetin-stimulated ATPase activity of ABCG2: modified Michaelis-Menten fit at different quercetin concentrations
Procedure: For ATPase activity measurements we used membrane samples derived from Sf9 (Spodoptera frugiperda) insect ovarian cells expressing human Pgp or ABCG2. cDNAs of the transporters were cloned into recombinant baculovirus transfer vectors, the Sf9 insect ovarian cells were cultured, and infected with the baculoviruses as described in ref. [52]. Sf9 cells overexpressing human Pgp and ABCG2 were harvested and cell membranes were isolated. The protein concentration of the membrane samples were determined by the Lowry method. The ABCG2 expressing Sf9 membrane samples were loaded with cholesterol by cholesterol-methyl-beta-cyclodextrine complex in order to obtain high specific ATPase activity of the transporter. Membrane samples were stored at −80 °C. The transporter expression of the membrane samples (5 μg membrane protein/slot) was routinely checked by immunoblot using the G-1 mAb (for Pgp) or BXP-21 mAb (for ABCG2) and a goat anti-mouse HRP-conjugated IgG secondary antibody. Both primary and secondary antibodies were from Santa Cruz Biotechnology Inc. (CA, USA) and applied at 1:5,000 dilution.
The vanadate-sensitive ATPase activity of Pgp and ABCG2 was determined by a colorimetric assay described in refs [32],[55]. Specific ATPase activity of the transporters was calculated from the amount of released inorganic phosphate. […]. The absorbance of the samples was measured at 700 nm using a BioTek Synergy HT plate reader (BioTek Instruments, Winooski, USA).
The half-inhibitory doses (IC50) of retinoids were determined by fitting the dose-response relationships with a four parameter sigmoidal curve, where Amax and Amin are the ATPase activities measured at zero and at infinitely high inhibitor concentrations, respectively, n is the Hill coefficient and x is the concentration of the inhibitor:
Upon studying the kinetics of inhibition of the substrate-stimulated ATPase activity by retinoids data points were fitted with a modified form of the Michaelis-Menten equation[56] which includes the Hill coefficient, n: […]
v0 is the basal ATPase activity measured in the absence of the stimulatory substrate, while vmax is the maximal extent of ATPase stimulation and KM is the Michaelis constant (i.e. the substrate concentration at which the reaction rate is half of vmax).

[5] = tested on: NIH 3T3 / NIH 3T3 MDR1 and MDCK / MDCK ABCG2 cells; test: DPH steady-state fluorescence anisotropy (membrane fluidity); details: retinoids 100 μM; for Effect on DPH fluorescence anisotropy: cyclosporin 10 μM, Ko143 2 μM, 10 min 37 °C, all tested cell lines; for Effect on DPH anisotropy in transporter expressing compared to non-expressing cells: Pgp+ vs Pgp− NIH 3T3, ABCG2 expressing vs non-expressing MDCK
[6] = cited from earlier work; for Plasma concentrations resulting from chemotherapy use: treatment of neuroblastoma or squamous cell carcinoma, ref [24][25][26]
Pgp [7] = target: T1, Pgp; test: biochemical; details: IC50 values, Sf9 membranes, mean ± SEM, n=3
Procedure: as §3, §4

[8] = tested on: Pgp- and ABCG2-negative NIH 3T3 and MDCK cells; test: Calcein and mitoxantrone accumulation in transporter negative cells; assay type: cell-based, mouse / canine; details: NIH 3T3 (calcein) and MDCK (mitoxantrone), Supplementary Fig. S1, 50 µM
Procedure: Supplementary Fig. S1: Effect of retinoid derivatives on the calcein (a) and
mitoxantrone (c) accumulation and viability (b, d) of Pgp- and ABCG2-negative NIH
3T3 and MDCK cells. Cells were pre-treated with retinoids added at 50 µM concentration
Cell viability was determined on the basis of propidium iodide exclusion.
(1 picture or pasted object on this page, not shown here)

[9] = cited from earlier work
[10] = tested on: NIH 3T3 / NIH 3T3 MDR1 and MDCK / MDCK ABCG2 cells; test: TMA-DPH steady-state fluorescence anisotropy (membrane fluidity); details: 100 μM; NIH 3T3 and NIH 3T3 MDR1 cells
[11] = Pgp basal ATPase activity, 10 min pre-incubation 37 °C, 3 mM ATP/Mg2+ 25 min
[12] = Pgp stimulated (verapamil-stimulated) ATPase activity, 40 μM verapamil
[13] = 10 μM quercetin, read-out: IC50 values, ABCG2 stimulated (quercetin-stimulated) ATPase activity
[14] = read-out: IC50 values, ABCG2 basal ATPase activity

T1 sequence (P08183 whole entry): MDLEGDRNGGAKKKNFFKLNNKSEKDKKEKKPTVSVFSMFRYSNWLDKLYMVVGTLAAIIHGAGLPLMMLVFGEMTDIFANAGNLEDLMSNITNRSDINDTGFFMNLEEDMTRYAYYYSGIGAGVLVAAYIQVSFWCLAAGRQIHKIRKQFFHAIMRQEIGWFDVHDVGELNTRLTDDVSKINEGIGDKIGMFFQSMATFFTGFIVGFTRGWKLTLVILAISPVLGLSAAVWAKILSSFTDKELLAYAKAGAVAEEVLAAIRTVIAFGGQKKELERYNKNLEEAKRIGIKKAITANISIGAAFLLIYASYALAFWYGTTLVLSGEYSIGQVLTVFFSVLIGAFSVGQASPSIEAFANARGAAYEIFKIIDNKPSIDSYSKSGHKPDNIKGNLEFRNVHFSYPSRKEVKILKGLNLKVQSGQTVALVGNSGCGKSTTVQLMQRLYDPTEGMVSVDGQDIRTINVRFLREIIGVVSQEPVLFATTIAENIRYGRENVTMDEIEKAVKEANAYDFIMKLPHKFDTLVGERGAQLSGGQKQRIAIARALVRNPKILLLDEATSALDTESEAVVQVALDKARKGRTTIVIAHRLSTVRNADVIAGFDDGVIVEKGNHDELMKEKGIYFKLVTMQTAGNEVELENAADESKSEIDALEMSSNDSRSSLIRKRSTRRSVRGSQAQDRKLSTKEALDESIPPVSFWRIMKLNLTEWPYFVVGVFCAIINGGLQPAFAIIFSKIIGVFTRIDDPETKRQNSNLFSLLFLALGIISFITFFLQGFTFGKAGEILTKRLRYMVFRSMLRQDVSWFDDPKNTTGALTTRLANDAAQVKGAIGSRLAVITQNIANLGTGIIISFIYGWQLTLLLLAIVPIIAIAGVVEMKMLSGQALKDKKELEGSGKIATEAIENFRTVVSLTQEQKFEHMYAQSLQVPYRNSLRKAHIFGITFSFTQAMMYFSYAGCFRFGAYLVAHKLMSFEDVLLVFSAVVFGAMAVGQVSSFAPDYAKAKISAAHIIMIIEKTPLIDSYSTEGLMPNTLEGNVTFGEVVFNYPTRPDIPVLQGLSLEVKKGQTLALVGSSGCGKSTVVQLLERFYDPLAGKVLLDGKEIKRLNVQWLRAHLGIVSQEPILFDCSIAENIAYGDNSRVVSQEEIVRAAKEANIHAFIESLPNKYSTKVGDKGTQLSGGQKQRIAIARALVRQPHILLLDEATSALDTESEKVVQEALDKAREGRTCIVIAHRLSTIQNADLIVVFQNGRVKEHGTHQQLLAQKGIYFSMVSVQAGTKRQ

Compound | Effect on calcein accumulation of Pgp expressing cells (Pgp transport activity) (Pgp [1]) | IC50 values, Pgp stimulated (verapamil-stimulated) ATPase activity (Pgp [2]) | IC50 values, Pgp basal ATPase activity (Pgp [2]) | Effect on mitoxantrone accumulation of ABCG2 expressing cells (ABCG2 transport activity) (ABCG2 [3]) | IC50 values, ABCG2 stimulated (quercetin-stimulated) ATPase activity (ABCG2 [4]; 10 μM quercetin) | IC50 values, ABCG2 basal ATPase activity (ABCG2 [4]) | Effect on DPH fluorescence anisotropy [5] | other results
CC1=C(/C=C/C(C)=C\C=C\C(C)=C\C(=O)O)C(C)(C)CCC1 [9-cis-retinoic acid] | none of them had any effect | No effect | No effect | none of them had any effect | No effect | No effect | did not have any effect | 
CC1=C(/C=C/C(C)=C/C=C/C(C)=C\C(=O)O)C(C)(C)CCC1 [13-cis-retinoic acid] | increased the cellular accumulation of the fluorescent transporter substrates in a concentration dependent manner |  |  | increased the cellular accumulation of the fluorescent transporter substrates in a concentration dependent manner |  |  | increased the DPH fluorescence anisotropy values significantly | Plasma concentrations resulting from chemotherapy use [6]: 10 to 20 µM; Change of apparent KM of verapamil-stimulated Pgp ATPase activity (Pgp [2]): did not induce statistically significant KM increase; Change of vmax of verapamil-stimulated Pgp ATPase activity (Pgp [2]): decreased the vmax; Type of inhibition of the verapamil-stimulated ATPase activity of Pgp (Pgp [2]): inhibits Pgp only non-competitively; IC50 (Pgp [7]; [11]): 60.5 ± 11.4 µM; IC50 (Pgp [7]; [12]): 26.8 ± 2 µM; Effect on substrate accumulation of transporter negative cells [8]: did not have any effect; IC50 (ABCG2 [4]; [13]): 76.5 ± 2.3 µM; Change of apparent KM of quercetin-stimulated ABCG2 ATPase activity (ABCG2 [4]): apparent increase of the KMvalues; Change of vmax of quercetin-stimulated ABCG2 ATPase activity (ABCG2 [4]): decreased the vmax value; IC50 (ABCG2 [4]; [14]): 70.6 ± 9 µM; Type of inhibition of the quercetin-stimulated ATPase activity of ABCG2 (ABCG2 [4]): mixed-type transporter inhibition; Effect on DPH anisotropy in transporter expressing compared to non-expressing cells [5]: similarly
CC1=C(/C=C/C(C)=C/C=C/C(C)=C/C(=O)O)C(C)(C)CCC1=O [All-trans-4-oxo-retinoic acid, all-trans-4-oxo-retinoic acid] |  | Weak inhibition | No effect |  | No effect | No effect |  | 
CC1=C(/C=C/C(C)=C/C=C/C(C)=C/C(=O)O)C(C)(C)CCC1 [All-trans-retinoic-acid, all-trans retinoic acid] | none of them had any effect | No effect | No effect | none of them had any effect | No effect | No effect | did not have any effect | Plasma concentrations resulting from chemotherapy use [6]: 10 to 20 µM
CC1=C(/C=C/C(C)=C/C=C/C(C)=C/CO)C(C)(C)CCC1 [Retinol] | increased the cellular accumulation of the fluorescent transporter substrates in a concentration dependent manner |  |  | increased the cellular accumulation of the fluorescent transporter substrates in a concentration dependent manner |  |  | increased the DPH fluorescence anisotropy values significantly | Concentration present in the plasma (physiological) ([6]; ref [20]): 1–2 micromolar; Change of apparent KM of verapamil-stimulated Pgp ATPase activity (Pgp [2]): increased the KM; Change of vmax of verapamil-stimulated Pgp ATPase activity (Pgp [2]): decreased the vmax; Type of inhibition of the verapamil-stimulated ATPase activity of Pgp (Pgp [2]): mixed-type transporter inhibition; IC50 (Pgp [7]; [11]): 23.5 ± 4 µM; IC50 (Pgp [7]; [12]): 27.9 ± 0.7 µM; LogP (octanol-water partition coefficient, LogPow) ([9]; ref PubChem Compound Database (CID)): 5.7; Effect on substrate accumulation of transporter negative cells [8]: did not have any effect; IC50 (ABCG2 [4]; [13]): 95.2 ± 10.6 µM; Change of apparent KM of quercetin-stimulated ABCG2 ATPase activity (ABCG2 [4]): increased the KM; Change of vmax of quercetin-stimulated ABCG2 ATPase activity (ABCG2 [4]): decreased the vmax; IC50 (ABCG2 [4]; [14]): 31.6 ± 4.2 µM; Type of inhibition of the quercetin-stimulated ATPase activity of ABCG2 (ABCG2 [4]): mixed-type transporter inhibition; Effect on DPH anisotropy in transporter expressing compared to non-expressing cells [5]: similarly
CCCCCCCCCCCCCCCC(=O)OC/C=C(C)/C=C/C=C(C)/C=C/C1=C(C)CCCC1(C)C [Retiny-palmitate, Retinyl-palmitate] | none of them had any effect | No effect | No effect | none of them had any effect | No effect | No effect |  | Effect on TMA-DPH fluorescence anisotropy, NIH 3T3 cell pair [10]: decreased the TMA-DPH anisotropies significantly
CCC(=O)OC/C=C(C)/C=C/C=C(C)/C=C/C1=C(C)CCCC1(C)C [Retinyl-propionate] | none of them had any effect | No effect | No effect | none of them had any effect | No effect | No effect |  | 
O=c1c(O)c(-c2ccc(O)c(O)c2)oc2cc(O)cc(O)c12 [quercetin] |  |  |  |  |  |  |  | LogP (octanol-water partition coefficient, LogPow) ([9]; ref 2 (Rothwell et al., 2005)): 1.8; Stimulated ATPase activity of ABCG2 (ABCG2 [4]; 10 μM quercetin): 60–70 nmol Pi/ mg protein/min; Stimulation of ABCG2 ATPase activity (ABCG2 [4]; 10 μM quercetin, maximum stimulation): ~2 fold
